Structures can show the parent of a compound that is named as a salt.

This test deals with T1, recombinant human NPY Y2 receptors (Homo sapiens, UniProt P49146).
T1 construct: expressed in transfected cells; host or cells: CHO-C4 cells (membrane preparation)
T1 sequence (P49146 1-381): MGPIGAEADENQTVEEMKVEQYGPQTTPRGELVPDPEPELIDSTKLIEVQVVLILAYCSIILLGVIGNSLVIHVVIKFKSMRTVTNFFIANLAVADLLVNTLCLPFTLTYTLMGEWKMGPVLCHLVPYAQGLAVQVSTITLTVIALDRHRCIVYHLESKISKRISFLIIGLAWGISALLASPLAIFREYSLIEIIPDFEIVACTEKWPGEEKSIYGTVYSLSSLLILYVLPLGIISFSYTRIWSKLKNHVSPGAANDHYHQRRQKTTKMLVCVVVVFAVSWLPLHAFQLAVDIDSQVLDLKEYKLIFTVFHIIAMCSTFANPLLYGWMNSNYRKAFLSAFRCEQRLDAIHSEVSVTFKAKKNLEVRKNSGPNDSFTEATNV
As to the kind of experiment: Scintillation proximity [35S]GTPγS binding assay (inhibition of 0.5 nM NPY-stimulated [35S]GTPγS binding). The class given is biochemical. The following applies: 10 μM compound, membranes from CHO-C4 cells expressing recombinant human NPY Y2 receptors, read-out: [%] inhibiton at 10 μM. The method, then: Preparation of Membranes: CHO-C4 cells expressing recombinant human NPY Y2 receptors were used to prepare membranes for the GTPγS assay. Cells were grown to 80-95% confluency on 15-cm (225 cm^2) tissue culture plates. After aspiration of the culture medium, cells were washed twice with 18 ml ice-cold phosphate-buffered saline (PBS), scraped off and suspended in 3 ml ice-cold PBS in pre-cooled centrifuge tubes. The dishes were rinsed with 2 ml ice-cold PBS per dish and the washings were combined with the PBS cell suspension from above. Cells pooled from 5-7 dishes were centrifuged for 5 min at 10,000 rpm (12,000 g) in a Sorvall RC5B centrifuge using an SS34 rotor at 4° C. The cell pellet was resuspended in 5 ml ice-cold buffer (20 mM HEPES, 10 mM EDTA; pH 7.4) by vortexing (2-5 sec), homogenized using a Polytron (step 4 for 20-30 sec), and ice-cold buffer added to 25 ml. The suspension was centrifuged again for 20 min at 18,000 rpm (39,000 g) at 4° C. and the pellet resuspended in 5 ml ice-cold buffer (20 mM HEPES, 0.1 mM EDTA; pH 7.4) by vortexing (2-5 sec), homogenized with a Polytron (step 4 for 10 sec), and ice-cold buffer added to 25 ml. The suspension was centrifuged a third time for 20 min at 18,000 rpm (39,000 g) at 4° C. The pellet was resuspend in 1 ml ice-cold buffer (20 mM HEPES, 0.1 mM EDTA; pH 7.4) by vortexing (5-8 sec). Two to five resuspended pellets were combined and homogenized using a Polytron (step 4 for 15-25 sec). A small aliquot (20-50 μl) was removed for protein determination by the Coomassie Plus Protein Assay Reagent (Pierce) using BSA as standard. The membrane suspension was aliquoted in pre-cooled (on dry ice) Eppendorf tubes (0.25-1 ml/tube affording approximately 0.5-2 mg of membrane protein/tube). The pellets were frozen and stored at −80° C.
Scintillation proximity [^35S]GTPγS binding assay: Frozen membranes from CHO-C4 cells expressing recombinant human NPY Y2 receptors (2 mg for four 96-well plates) were thawed on ice. Thawed membranes were pipetted into 10 ml of assay buffer (20 mM HEPES, 10 mM MgCl2, 100 mM NaCl, pH 7.4) and homogenized briefly using a Polytron. The final assay mixture was prepared in 96-well microtiter plates (Isoplate Wallac, Perkin Elmer). The composition of the assay mixtures in a final volume of 250 μl per well was as follows: 20 mM HEPES, 10 mM MgCl2, 100 mM NaCl, pH 7.4, 30 μM GDP, 1 mg/ml BSA (added fresh), 5 μg membrane protein, 1.5 mg Wheatgerm agglutinin SPA beads (Amersham), 0.45 nM [^35S]GTPγS (Amersham, SJ1308. 1000 Ci/mmol, stabilized solution), and the test compounds (agonists and/or antagonists) at the appropriate concentrations. The samples were incubated at room temperature for 90 min by shaking, after which the SPA beads were sedimented by centrifugation in an Eppendorf 5804 centrifuge at 2700 rpm for 10 min at room temperature. After 60 min the plates were counted in a TopCount (Canberra). Basal [^35S]GTPγS binding was measured in the absence of agonist (NPY). Non-specific binding was measured in the presence of excess (10 μM) unlabelled GTPγS (Sigma). Nonspecific binding never exceeded 10% of basal binding and was thus not subtracted from the experimental data. Antagonists were tested for the inhibition of 0.5 nM NPY-stimulated [^35S]GTPγS binding. Antagonist inhibition curves were analyzed by non-linear regression using GraphPad Prism software (Version 4.0, GraphPad Software Inc., CA, USA).
Antagonistic activity of compounds of the present invention is examined by the Scintillation proximity [^35S]GTPγS binding assay as described above (inhibition of 0.5 nM NPY-stimulated [^35S]GTPγS binding). The table below represents percentages of inhibition at a concentration of 10 μM.
In the case of `CCC(CC)C(=O)Nc1ccc(N2CCC(C(c3ccccn3)c3ccccn3)CC2)c(F)c1` [Compound 24, N-{4-[4-(Di-pyridin-2-yl-methyl)-piperidin-1-yl]-3-fluoro-phenyl}-2-ethyl-butyramide], the inhibition at 10 µM was found to be 95%.
Then `Cc1noc(C)c1Nc1nc2cc(N3CCN(C(c4ccccc4)c4ccccc4)CC3)c(F)cc2[nH]1` [Compound 22, [5-(4-Benzhydryl-piperazin-1-yl)-6-fluoro-1H-benzoimidazol-2-yl]-(3,5-dimethyl-isoxazol-4-yl)-amine triluoroacetate salt], with 71%.
The result for `Cc1noc(C)c1C(=O)Nc1ccc(N2CCN(C(c3ccccc3)c3ccccc3)CC2)c(F)c1` [Compound 9, 3,5-Dimethyl-isoxazole-4-carboxylic acid [4-(4-benzhydryl-piperazin-1-yl)-3-fluoro-phenyl]-amide] reads 85%; that for `CCC(CC)C(=O)Nc1ccc(N2CCC(C(c3ccccc3)c3ccccc3)CC2)c(C#N)c1` [Compound 15, N-[4-(4-Benzhydryl-piperidin-1-yl)-3-cyano-phenyl]-2-ethyl-butyramide], 86%.
As for `Cc1noc(C)c1NC(=O)Nc1ccc(N2CCC(C(c3ccccc3)c3ccccc3)CC2)c(F)c1` [Compound 16, 1-[4-(4-Benzhydryl-piperidin-1-yl)-3-fluoro-phenyl]-3-(3,5-dimethyl-isoxazol-4-yl)-urea], the inhibition at 10 µM is 90%.
Then `Cc1noc(C)c1NC(=O)Nc1ccc(N2CCN(C(c3ccc(F)cc3)c3ccc(F)cc3)CC2)c(F)c1` [Compound 8, 1-(4-{4-[Bis-(4-fluoro-phenyl)-methyl]-piperazin-1-yl}-3-fluoro-phenyl)-3-(3,5-dimethyl-isoxazol-4-yl)-urea], with 86%; and `Cn1cccc1C(=O)Nc1ccc(N2CCN(C(c3ccccc3)c3ccccc3)CC2)c(F)c1` [Compound 11, 1-Methyl-1H-pyrrole-2-carboxylic acid [4-(4-benzhydryl-piperazin-1-yl)-3-fluoro-phenyl]-amide], with 62%; and `Cc1noc(C)c1NC(=O)Nc1ccc(N2CCN(C(c3ccc(F)cc3)c3ccc(F)cc3)CC2)c(C#N)c1` [Compound 7], with 87%.
Regarding `CCC(CC)C(=O)Nc1ccc(N2CCN(C(c3ccccc3)c3ccccc3)CC2)c(F)c1` [Compound 6], the inhibition at 10 µM amounted to 89%.
`N#Cc1cc(NC(=O)C2CCOC2)ccc1N1CCC(C(c2ccccc2)c2ccccc2)CC1` (stereo not shown) [Compound 14, Tetrahydro-furan-3-carboxylic acid [4-(4-benzhydryl-piperidin-1-yl)-3-cyano-phenyl]-amide]: the inhibition at 10 µM came to 90%.
The result for `Cc1noc(C)c1NC(=O)Nc1ccc(N2CCN(C(c3ccccc3)c3ccccc3)CC2)c(C#N)c1` [Compound 1, 1-[4-(4-Benzhydryl-piperazin-1-yl)-3-cyano-phenyl]-3-(3,5-dimethyl-isoxazol-4-yl)-urea] reads 95%; that for `CCC(CC)Nc1nc2cc(N3CCN(C(c4ccccc4)c4ccccc4)CC3)c(F)cc2[nH]1` [Compound 23, 5-(4-Benzhydryl-piperazin-1-yl)-6-fluoro-1H-benzoimidazol-2-yl]-(1-ethyl-propyl)-amine triluoroacetate salt], 72%; that for `Cc1noc(C)c1NC(=O)Nc1ccc(N2CCN(C(c3ccccc3)c3ccccc3)CC2)c(F)c1` [Compound 4, 1-[4-(4-Benzhydryl-piperazin-1-yl)-3-fluoro-phenyl]-3-(3,5-dimethyl-isoxazol-4-yl)-urea], 89%.
Then `Cn1nccc1C(=O)Nc1ccc(N2CCN(C(c3ccccc3)c3ccccc3)CC2)c(F)c1` [Compound 12, 2-Methyl-2H-pyrazole-3-carboxylic acid [4-(4-benzhydryl-piperazin-1-yl)-3-fluoro-phenyl]-amide], with 65%; and `N#Cc1cc(NC(=O)C2CCOC2)ccc1N1CCN(C(c2ccccc2)c2ccccc2)CC1` (stereo not shown) [Compound 2, Tetrahydro-furan-3-carboxylic acid [4-(4-benzhydryl-piperazin-1-yl)-3-cyano-phenyl]-amide], with 89%.
The result for `Cc1noc(C)c1NC(=O)Nc1ccc(N2CCC(C(c3ccccc3)c3ccccc3)CC2)c(C#N)c1` [Compound 13] reads 91%; that for `O=C(Nc1ccc(N2CCC(C(c3ccccc3)c3ccccc3)CC2)c(F)c1)C1CCOC1` (stereo not shown) [Compound 17, Tetrahydro-furan-3-carboxylic acid [4-(4-benzhydryl-piperidin-1-yl)-3-fluoro-phenyl]-amide], 86%; that for `CCC(CC)C(=O)Nc1ccc(N2CCN(C(c3ccccc3)c3ccccc3)CC2)c(C#N)c1` [Compound 3, N-[4-(4-Benzhydryl-piperazin-1-yl)-3-cyano-phenyl]-2-ethyl-butyramide], 88%.
With `O=C(Nc1ccc(N2CCN(C(c3ccccc3)c3ccccc3)CC2)c(F)c1)C1CCOC1` (stereo not shown) [Compound 5], the inhibition at 10 µM came out at 85%.
With `CCC(CC)C(=O)Nc1ccc(N2CCC(C(c3ccccc3)c3ccccc3)CC2)c(F)c1` [Compound 18, N-[4-(4-Benzhydryl-piperidin-1-yl)-3-fluoro-phenyl]-2-ethyl-butyramide], the inhibition at 10 µM stood at 85%.
`CCC(CC)C(=O)Nc1ccc(N2CCN(C(c3ccccn3)[C@H]3CCCO3)CC2)c(F)c1` (stereo partly drawn) [Compound 25, 2-Ethyl-N-{3-fluoro-4-[4-((R)-pyridin-2-yl-tetrahydro-furan-2-yl-methyl)-piperazin-1-yl]-phenyl}-butyramide]: the inhibition at 10 µM turned out to be 90%.
Then `Fc1cc2[nH]c(C3CCOC3)nc2cc1N1CCN(C(c2ccccc2)c2ccccc2)CC1` (stereo not shown) [Compound 20, 5-(4-Benzhydryl-piperazin-1-yl)-6-fluoro-2-(tetrahydro-furan-3-yl)-1H-benzoimidazole], with 53%.
The result for `Cc1ncccc1C(=O)Nc1ccc(N2CCN(C(c3ccccc3)c3ccccc3)CC2)c(F)c1` [Compound 10, N-[4-(4-Benzhydryl-piperazin-1-yl)-3-fluoro-phenyl]-2-methyl-nicotinamide] reads 85%.
The result for `Cc1noc(C)c1-c1nc2cc(N3CCN(C(c4ccccc4)c4ccccc4)CC3)c(F)cc2[nH]1` [Compound 21, 5-(4-Benzhydryl-piperazin-1-yl)-2-(3,5-dimethyl-isoxazol-4-yl)-6-fluoro-1H-benzoimidazole] reads 44%; that for `CCC(CC)c1nc2cc(N3CCN(C(c4ccccc4)c4ccccc4)CC3)c(F)cc2[nH]1` [Compound 19, 5-(4-Benzhydryl-piperazin-1-yl)-2-(1-ethyl-propyl)-6-fluoro-1H-benzoimidazole], 82%.

These data come from patent publication US20090099199A1, “ORGANIC COMPOUNDS” (priority 2007, published 2009).
